Experimental data: patent US9212140B2, “(5s,8s)-3-(4′-chlor-3′-fluor-4-methlybiphenyl-3-yl)-4-hydroxy-8-methoxy-1-azaspiro[4.5] dec-3-en-2-one (compound A) for treatment” (Bayer Intellectual Property GmbH, priority 2011, dated 2015)

Experiments:
[1] = Maximum tolerated dose (MTD) determination, oral; assay type: in vivo, female nude mice (NMRI nu/nu); conditions: for MTD at 21 days: 21-day treatment with 1 administration per day
Protocol: To this end, initially the maximum tolerable dose (MTD) was determined using the following protocol:
Over a period of 1, 2 or 3 weeks, a defined dose of the test substance was administered orally to female nude mice (NMRI-nude (nu/nu) mice, Taconic M&B A/S), and the mice were observed daily for mortality and body weight. The MTD was defined as the highest dose which could be administered without any animal dying during the treatment phase and the 7-day additional observation phase, and without any body weight loss of more than 10% compared to the initial weight.
Comparative Example C.1 was administered to female nude mice (NMRI nu/nu): • Dose: see Tab. 3 • Mode of administration: oral • Vehicle: PEG400/ethanol/Solutol HS 15(70/5/25, v/v/v) • (Solutol HS15: polyoxyethylene ester of 12-hydroxystearic acid) • Administration volume: 10 ml/kg • Scheme: see Tab. 3
The treatment phase was followed by an observation phase of 7 days.
Compound A was administered to female nude mice (NMRI nu/nu): • Dose: see Tab. 4 • Mode of administration: oral • Vehicle: PEG400/ethanol/Solutol HS 15(70/5/25, v/v/v) • Administration volume: 10 ml/kg • Scheme: see Tab. 4

human MCF-7 cells = assay: MCF-7 breast cancer xenograft model; assay type: in vivo, female nude mice (NMRI nu/nu); conditions: for T/C (based on tumour area) / T/C (based on tumour weight): 30 days, once per day
Protocol: Xenograft models in immunosuppressed mice were used to determine the antitumour activity in living organisms.
Various xenograft models in which the test substances were administered in their MTD and in lower doses were then used to determine the antitumour activity. In addition to various other models, use was made primarily of the breast cancer model with hormone-dependent human MCF-7 cells in female nude mice (NMRI-nude (nu/nu) mice, Taconic M&B A/S). To this end, on the day prior to the implantation of the tumour cells, a pellet for releasing oestrogen (17β-oestradiol 0.36 mg, release over 60 days) was administered subcutaneously to the mice. The next day, 2 million tumour cells (suspended in medium+Matrigel) 1:1, final 0.1 ml) were then injected subcutaneously into the side of each animal. When the tumours extended to an area of 20-25 mm^2, the mice were randomized into therapy groups and therapy was initiated. The therapy was then continued until an average tumour size of 120 mm^2 had been reached in the control group, which had only been given the vehicle of the test substance, or in one of the treatment groups, with tumour area and body weight being measured 2-3 times per week. At this point in time, the experiment was terminated in all groups and the excised tumours were weighed.
The T/C value was calculated as primary success parameter either using the effect on the tumour weight or using the effect on the tumour area: mean tumour weight/area in the treatment group divided by mean of the tumour weight/area in the vehicle group.
Comparative Example C.1 was subsequently administered to female nude mice (NMRI nu/nu) in the MCF-7 breast cancer xenograft model: • Dose: 7.5 mg/kg • Mode of administration: oral • Vehicle: PEG400/ethanol/Solutol HS 15(70/5/25, v/v/v) • Administration volume: 10 ml/kg • Scheme: 27 days, 2 times per day (2 qd) • Mice: 10
Compound A was subsequently administered to female nude mice (NMRI nu/nu) in the MCF-7 breast cancer xenograft model: • Dose: see Tab. 5 • Mode of administration: oral • Vehicle: PEG400/ethanol/Solutol HS 15(70/5/25, v/v/v) • Administration volume: 10 ml/kg • Scheme: 30 days, once per day (qd) • Mice per dose group: 10-13
For the statistical evaluation of the experiment, the non-parametric ANOVA test was used for the T/C values based on the tumour area, since there was no normal distribution of the measured values. All therapy groups were then compared to the vehicle group using Dunns Post test. The resulting p values are shown in the table (ns: not significant=p>0.05). Since there was a normal distribution of the T/C values based on tumour weight, the ANOVA test for parametric values was used for analysis. All therapy groups were then compared to the vehicle group using the Bonferroni Post test.

ACC2 [2] = target: T1, ACC2 (Homo sapiens (Human), UniProt O00763); assay: Human ACC2 enzyme assay B2 (ADP-Glo); assay type: biochemical; conditions: read-out: ACC 2 (=B2) IC50
Target sequence in this assay (O00763 27-2458 limits assumed): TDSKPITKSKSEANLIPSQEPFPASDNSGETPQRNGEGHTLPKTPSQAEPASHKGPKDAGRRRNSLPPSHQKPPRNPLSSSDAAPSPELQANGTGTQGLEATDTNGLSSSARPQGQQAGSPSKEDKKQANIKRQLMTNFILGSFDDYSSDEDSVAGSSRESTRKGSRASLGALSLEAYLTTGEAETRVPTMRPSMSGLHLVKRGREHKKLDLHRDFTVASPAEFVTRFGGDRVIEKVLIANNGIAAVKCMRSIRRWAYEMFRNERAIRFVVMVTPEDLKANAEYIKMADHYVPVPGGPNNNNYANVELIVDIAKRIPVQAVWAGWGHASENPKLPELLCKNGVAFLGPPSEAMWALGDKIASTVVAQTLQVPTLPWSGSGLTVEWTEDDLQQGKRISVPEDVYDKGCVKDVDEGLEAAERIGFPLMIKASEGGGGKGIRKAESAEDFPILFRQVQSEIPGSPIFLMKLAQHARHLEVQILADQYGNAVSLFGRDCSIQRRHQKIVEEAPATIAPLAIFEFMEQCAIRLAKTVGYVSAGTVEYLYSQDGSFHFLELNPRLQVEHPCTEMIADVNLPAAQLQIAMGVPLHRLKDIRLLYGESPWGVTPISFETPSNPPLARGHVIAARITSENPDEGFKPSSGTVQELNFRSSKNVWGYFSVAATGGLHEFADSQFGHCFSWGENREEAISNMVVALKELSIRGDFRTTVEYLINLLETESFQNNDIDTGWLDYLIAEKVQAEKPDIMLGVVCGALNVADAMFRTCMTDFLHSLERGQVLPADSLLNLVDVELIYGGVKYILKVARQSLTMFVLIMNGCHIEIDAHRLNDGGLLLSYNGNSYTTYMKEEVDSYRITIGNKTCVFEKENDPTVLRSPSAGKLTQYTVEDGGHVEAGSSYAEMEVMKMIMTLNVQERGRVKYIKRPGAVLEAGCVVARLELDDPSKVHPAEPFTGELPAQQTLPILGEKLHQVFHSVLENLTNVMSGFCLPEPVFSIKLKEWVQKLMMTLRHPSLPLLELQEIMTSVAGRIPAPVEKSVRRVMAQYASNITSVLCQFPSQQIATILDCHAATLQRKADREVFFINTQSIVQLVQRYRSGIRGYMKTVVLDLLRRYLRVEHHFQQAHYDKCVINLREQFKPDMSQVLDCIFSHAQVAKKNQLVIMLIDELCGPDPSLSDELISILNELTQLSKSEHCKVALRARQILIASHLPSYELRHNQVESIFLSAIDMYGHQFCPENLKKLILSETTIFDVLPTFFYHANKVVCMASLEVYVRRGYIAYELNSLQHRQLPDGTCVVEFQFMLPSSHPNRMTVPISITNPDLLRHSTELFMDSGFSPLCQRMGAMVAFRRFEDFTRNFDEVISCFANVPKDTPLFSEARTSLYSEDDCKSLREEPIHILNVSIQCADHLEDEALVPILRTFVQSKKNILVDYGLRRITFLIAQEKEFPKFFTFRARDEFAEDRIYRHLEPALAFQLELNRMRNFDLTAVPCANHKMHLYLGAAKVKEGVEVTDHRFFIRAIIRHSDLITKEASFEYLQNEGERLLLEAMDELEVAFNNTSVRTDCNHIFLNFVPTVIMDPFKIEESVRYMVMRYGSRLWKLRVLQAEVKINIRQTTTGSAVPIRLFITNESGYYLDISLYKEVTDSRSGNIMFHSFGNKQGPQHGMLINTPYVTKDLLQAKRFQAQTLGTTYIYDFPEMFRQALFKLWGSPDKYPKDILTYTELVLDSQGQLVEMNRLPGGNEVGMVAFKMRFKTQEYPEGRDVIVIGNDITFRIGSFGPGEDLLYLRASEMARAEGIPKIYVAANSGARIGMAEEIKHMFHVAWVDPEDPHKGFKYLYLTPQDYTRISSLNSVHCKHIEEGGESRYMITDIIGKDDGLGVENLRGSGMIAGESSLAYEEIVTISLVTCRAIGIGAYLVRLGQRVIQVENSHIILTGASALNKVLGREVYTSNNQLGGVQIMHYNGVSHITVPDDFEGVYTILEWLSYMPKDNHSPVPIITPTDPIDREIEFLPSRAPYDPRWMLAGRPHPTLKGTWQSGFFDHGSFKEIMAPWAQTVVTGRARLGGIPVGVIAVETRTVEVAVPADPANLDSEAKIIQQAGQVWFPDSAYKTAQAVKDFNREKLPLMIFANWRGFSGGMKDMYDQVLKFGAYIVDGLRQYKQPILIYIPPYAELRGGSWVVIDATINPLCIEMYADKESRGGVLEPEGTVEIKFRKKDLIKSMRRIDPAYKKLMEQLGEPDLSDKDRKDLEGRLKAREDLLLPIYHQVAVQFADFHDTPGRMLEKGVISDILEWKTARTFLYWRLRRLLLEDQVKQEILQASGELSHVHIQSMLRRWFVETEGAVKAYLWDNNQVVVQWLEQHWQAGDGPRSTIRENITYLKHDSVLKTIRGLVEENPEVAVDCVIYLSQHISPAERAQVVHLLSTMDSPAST
Protocol: Essentially, the enzyme activity is measured by quantifying the adenosine diphosphate (ADP) formed as a byproduct of the enzyme reactions using the ADP-Glo™ detection system from Promega. In this test, initially the adenosine triphosphate (ATP) not consumed in the enzyme reaction is converted quantitatively with an adenylate cyclase (“ADP-GLO reagent”) into cAMP, the adenylate cyclase is then stopped and (“kinase detection reagent”) the ADP formed is subsequently converted into ATP, which is converted in a luciferase-based reaction into a glow luminescence signal.
Typical concentrations were in the range of 2 ng/μl. […] The amount of light emitted was taken as a measure for the amount of ADP formed and thus for the enzyme activity of the hACC2.

ACC2 [3] = target: T1, ACC2; assay: Human ACC2 enzyme assay A2 (HTRF ADP immunoassay); assay type: biochemical; conditions: read-out: ACC 2 (=A2) IC50
Excerpt: The ACC2 inhibition data were obtained using two different assays (A2 and B2)
Target sequence in this assay (O00763 39-2458 limits assumed): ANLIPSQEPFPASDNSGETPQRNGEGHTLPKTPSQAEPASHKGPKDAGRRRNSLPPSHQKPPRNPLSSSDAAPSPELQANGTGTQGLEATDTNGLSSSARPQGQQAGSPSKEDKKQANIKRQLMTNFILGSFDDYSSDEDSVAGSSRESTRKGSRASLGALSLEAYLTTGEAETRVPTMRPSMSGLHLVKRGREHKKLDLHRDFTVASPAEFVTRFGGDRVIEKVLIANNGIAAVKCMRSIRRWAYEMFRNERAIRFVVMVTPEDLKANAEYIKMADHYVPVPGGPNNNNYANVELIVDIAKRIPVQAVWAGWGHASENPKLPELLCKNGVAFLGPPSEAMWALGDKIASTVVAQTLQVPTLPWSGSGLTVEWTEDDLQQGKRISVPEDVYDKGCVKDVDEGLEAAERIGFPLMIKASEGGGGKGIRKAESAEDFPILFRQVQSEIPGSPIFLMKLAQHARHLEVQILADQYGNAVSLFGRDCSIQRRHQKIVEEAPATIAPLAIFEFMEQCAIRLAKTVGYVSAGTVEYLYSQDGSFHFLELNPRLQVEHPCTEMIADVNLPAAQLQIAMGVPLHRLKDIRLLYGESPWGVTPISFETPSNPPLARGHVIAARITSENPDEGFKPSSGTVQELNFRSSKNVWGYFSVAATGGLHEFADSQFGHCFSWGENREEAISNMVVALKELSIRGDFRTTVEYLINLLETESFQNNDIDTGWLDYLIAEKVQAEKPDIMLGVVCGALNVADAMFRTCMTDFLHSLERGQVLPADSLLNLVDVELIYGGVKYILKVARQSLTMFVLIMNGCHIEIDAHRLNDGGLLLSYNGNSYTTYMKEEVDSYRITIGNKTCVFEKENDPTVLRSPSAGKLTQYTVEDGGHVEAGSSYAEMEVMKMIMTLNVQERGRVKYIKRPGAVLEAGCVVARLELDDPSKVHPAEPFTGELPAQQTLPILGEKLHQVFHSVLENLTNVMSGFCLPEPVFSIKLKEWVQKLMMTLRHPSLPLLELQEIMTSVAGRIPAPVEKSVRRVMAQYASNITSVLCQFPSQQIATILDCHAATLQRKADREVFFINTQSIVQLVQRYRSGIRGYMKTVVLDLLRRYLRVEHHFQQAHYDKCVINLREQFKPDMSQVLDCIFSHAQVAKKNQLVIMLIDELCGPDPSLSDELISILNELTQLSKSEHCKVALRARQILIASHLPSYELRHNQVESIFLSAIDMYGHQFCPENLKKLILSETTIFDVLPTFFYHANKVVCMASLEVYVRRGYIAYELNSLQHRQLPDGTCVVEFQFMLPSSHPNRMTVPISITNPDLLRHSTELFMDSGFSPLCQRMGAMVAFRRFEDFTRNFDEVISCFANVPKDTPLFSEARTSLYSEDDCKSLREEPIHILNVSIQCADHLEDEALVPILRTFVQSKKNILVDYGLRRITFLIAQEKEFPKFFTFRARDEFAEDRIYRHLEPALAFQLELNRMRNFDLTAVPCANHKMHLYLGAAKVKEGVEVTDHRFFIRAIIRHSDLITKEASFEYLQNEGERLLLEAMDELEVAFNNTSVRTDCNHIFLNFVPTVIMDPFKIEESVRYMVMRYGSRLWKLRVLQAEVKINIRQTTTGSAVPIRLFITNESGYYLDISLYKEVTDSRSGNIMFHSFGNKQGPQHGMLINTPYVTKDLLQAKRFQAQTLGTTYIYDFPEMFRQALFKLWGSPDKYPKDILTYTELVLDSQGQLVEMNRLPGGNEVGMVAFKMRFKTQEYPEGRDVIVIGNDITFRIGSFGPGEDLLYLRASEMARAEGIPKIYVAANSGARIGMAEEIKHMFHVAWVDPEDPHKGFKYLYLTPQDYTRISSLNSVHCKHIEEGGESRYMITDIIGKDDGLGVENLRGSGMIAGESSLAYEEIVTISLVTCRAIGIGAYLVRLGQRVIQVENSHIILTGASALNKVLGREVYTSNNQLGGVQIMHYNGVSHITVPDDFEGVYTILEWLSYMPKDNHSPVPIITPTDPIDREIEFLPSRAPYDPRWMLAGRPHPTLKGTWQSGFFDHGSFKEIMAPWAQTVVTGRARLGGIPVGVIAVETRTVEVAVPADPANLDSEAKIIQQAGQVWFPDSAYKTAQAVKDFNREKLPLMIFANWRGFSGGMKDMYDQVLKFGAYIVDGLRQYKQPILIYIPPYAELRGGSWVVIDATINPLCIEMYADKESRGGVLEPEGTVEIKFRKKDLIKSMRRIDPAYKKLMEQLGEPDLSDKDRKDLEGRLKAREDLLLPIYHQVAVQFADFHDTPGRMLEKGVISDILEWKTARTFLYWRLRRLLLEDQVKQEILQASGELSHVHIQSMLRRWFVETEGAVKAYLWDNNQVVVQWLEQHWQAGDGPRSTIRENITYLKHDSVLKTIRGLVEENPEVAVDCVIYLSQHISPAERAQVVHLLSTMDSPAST

H460 = assay: Cell assay, tumour cell proliferation (CellTiter-Glo, 96 h); assay type: cell-based; conditions: Homo sapiens, NCI-H460; 96-hour incubation
Protocol: (§1) In accordance with the invention, the substances were tested in cell-based assays for the ability of the substances of inhibiting tumour cell proliferation after a 96-hour incubation with the substance. Cell viability was tested using the CellTiter-Glo® luminescent cell viability assay (Promega). The cells were sown at a density of 2000-5000 cells/well (depending on the cell line) in 100 μl growth medium on 96-well microtitre plates. For each cell line examined, cells were sown on a separate plate to determine the luminescence at t=0 hours and t=96 hours. After overnight incubation at 37° C., the luminescence values for the t=0 samples were determined. The dose plates for the t=96 hours points in time were treated with substances diluted with growth medium. The cells were then incubated at 37° C. for 96 hours, and the luminescence values for the t=96 hours sample were then determined/For data analysis, the t=0 values were subtracted from the t=96 hour values for treated and untreated samples. The differences in luminescence in percent between substance-treated samples and control values were used to determine the growth inhibition in percent.
(§2) The substances were tested in the following cell lines which represent the stated indications in an exemplary manner: […]

LNCaP = assay: as above; assay type: cell-based; conditions: Homo sapiens, 96-hour incubation
Protocol: as §1, §2

CAL-120 = assay: as above; assay type: cell-based; conditions: Homo sapiens, 96-hour incubation
Protocol: as §1, §2

BxPC3 = assay: as above; assay type: cell-based; conditions: Homo sapiens, BXPC-3; 96-hour incubation
Protocol: as §1, §2

SNU16 = assay: as above; assay type: cell-based; conditions: Homo sapiens, SNU-16; 96-hour incubation
Protocol: as §1, §2

DAN-G = assay: as above; assay type: cell-based; conditions: 96-hour incubation
Protocol: as §1, §2

BT-20 = assay: as above; assay type: cell-based; conditions: Homo sapiens, 96-hour incubation
Protocol: as §1, §2

[4] = 7.5 mg/kg oral 2 qd, up to day 37 of the experiment

For `CO[C@H]1CC[C@]2(CC1)NC(=O)C(c1cc(-c3ccc(Cl)cc3)ccc1C)=C2O` [Comparative Example C.1, (5s,8s)-3-(4′-chloro-4-methylbiphenyl-3-yl)-4-hydroxy-8-methoxy-1-azaspiro[4.5]dec-3-en-2-one], the Deaths ([1]; 10 mg/kg oral, 14 days, 2 times a day) was 1 of 3, the Deaths ([1]; 15 mg/kg oral, 21 days, once per day (Table 3)) was 1 of 5 and the Deaths ([1]; 20 mg/kg oral, 14 days, 2 times a day) was 2 of 3. For the same molecule, the Deaths ([1]; 20 mg/kg oral, 21 days, once per day (Table 3)) was 1 of 5, the Deaths ([1]; 25 mg/kg oral, 21 days, once per day (Table 3)) was 1 of 5 and the Deaths ([1]; 30 mg/kg oral, 14 days, 2 times a day) was 2 of 3. The MTD at 14 days ([1]; female, NMRI nu/nu, mouse, in vivo, po, 14-day treatment with 2 administrations per day) was under 10 mg/kg, the MTD at 21 days ([1]; female, NMRI nu/nu, mouse, in vivo, po) was under 15 mg/kg and the animals died (human MCF-7 cells; [4]) was 1 of 10. The bodyweight loss (human MCF-7 cells; [4]) was “low bodyweight loss”, the “T/C value based on tumour area” value (human MCF-7 cells; 7.5 mg/kg oral, 27 days, 2 times per day (2 qd)) was 0.86 and the Deaths (human MCF-7 cells; continued with 10 mg/kg 2 qd up to day 43) was 1 of 4. The Deaths (human MCF-7 cells; continued with 12.5 mg/kg 2 qd up to day 43) was 4 of 5.
`COC1CCC2(C=C(c3cc(-c4ccc(Cl)c(Cl)c4)ccc3C)C(=O)N2)CC1` (stereo not shown) [Comparative Example C.2] showed an IC50 (ACC2 [2]) of 2610 nM and an IC50 (ACC2 [3]) of 1410 nM.
For `CO[C@H]1CC[C@]2(CC1)NC(=O)C(c1cc(-c3ccc(Cl)c(F)c3)ccc1C)=C2O` [Compound A, (5s,8s)-3-(4′-chloro-3′-fluoro-4-methylbiphenyl-3-yl)-4-hydroxy-8-methoxy-1-azaspiro[4.5]dec-3-en-2-one], the Deaths ([1]; 20 mg/kg oral, 21 days, once per day (Table 4)) was 0 of 5, the Deaths ([1]; 30 mg/kg oral, 21 days, once per day (Table 4)) was 0 of 5 and the Deaths ([1]; 40 mg/kg oral, 21 days, once per day (Table 4)) was 1 of 5. For the same molecule, the Deaths ([1]; 50 mg/kg oral, 21 days, once per day (Table 4)) was 5 of 5, the Deaths ([1]; 60 mg/kg oral, 21 days, once per day (Table 4)) was 5 of 5 and the MTD at 21 days ([1]; female, NMRI nu/nu (nude), mouse, in vivo, po) was under 40 mg/kg. For the same molecule, the IC50 (H460) was 201 nM, the IC50 (LNCaP) was 334 nM and the IC50 (CAL-120) was 266 nM. For the same molecule, the IC50 (BxPC3) was 165 nM, the IC50 (SNU16) was 164 nM and the IC50 (DAN-G) was 184 nM. The IC50 (BT-20) was 187 nM, the “T/C (based on tumour area)” value (human MCF-7 cells; 20 mg/kg oral) was 0.56 (ns) and the “T/C (based on tumour weight)” value (human MCF-7 cells; 20 mg/kg oral) was 0.42 (p = 0.003). The “T/C (based on tumour area)” value (human MCF-7 cells; 25 mg/kg oral) was 0.51 (p < 0.05), the “T/C (based on tumour weight)” value (human MCF-7 cells; 25 mg/kg oral) was 0.37 (p < 0.001) and the “T/C (based on tumour area)” value (human MCF-7 cells; 30 mg/kg oral) was 0.49 (p < 0.05). For the same molecule, the “T/C (based on tumour weight)” value (human MCF-7 cells; 30 mg/kg oral) was 0.35 (p < 0.001), the “T/C (based on tumour area)” value (human MCF-7 cells; 35 mg/kg oral) was 0.44 (p < 0.05) and the “T/C (based on tumour weight)” value (human MCF-7 cells; 35 mg/kg oral) was 0.31 (p < 0.001). The “antitumoral efficacy (in words)” value (human MCF-7 cells; MCF-7 xenograft, summary statement) was “biologically meaningful and significant antitumoral effects”.
